Experimental data as given in ChEMBL document CHEMBL4342498, “Design and Discovery of an Orally Efficacious Spiroindolinone-Based Tankyrase Inhibitor for the Treatment of Colon Cancer” (J Med Chem, 2020).
Activity calls are given as the source filed them. No cut-off for these calls is given here.

Assays:
[1] = Total clearance in Sprague-Dawley rat at 3 mg/kg, iv; format: ADME, organism-based; details: in vivo
[2] = Cmax in Sprague-Dawley rat at 3 mg/kg, po; format: ADME, organism-based; parameters: dose 3 mg/kg, route oral; details: in vivo
[3] = Tmax in Sprague-Dawley rat at 3 mg/kg, po; format: ADME, organism-based; details: in vivo
[4] = species: Homo sapiens
[5] = species: Homo sapiens; remark: listed apart in the source
[6] = AUC (infinity) in ICR mouse at 20 mg/kg, ip; format: ADME, organism-based; parameters: dose 20 mg/kg, route intraperitoneal, time infinity; details: in vivo
[7] = Cmax in ICR mouse at 20 mg/kg, ip; format: ADME, organism-based; parameters: dose 20 mg/kg, route intraperitoneal; details: in vivo
[8] = Tmax in ICR mouse at 20 mg/kg, ip; format: ADME, organism-based; details: in vivo
[9] = Half life in ICR mouse at 20 mg/kg, ip; format: ADME, organism-based; details: in vivo
[10] = AUC (infinity) in ICR mouse at 20 mg/kg, po; format: ADME, organism-based; parameters: dose 20 mg/kg, time infinity, route oral; details: in vivo
[11] = Half life in ICR mouse at 20 mg/kg, po; format: ADME, organism-based; details: in vivo
[12] = target: T1, Cytochrome P450 1A2 (Homo sapiens, UniProt P05177); assay: Inhibition of CYP1A2 in human liver microsomes using phenacetin as substrate preincubated for 5 mins followed by NADPH addition and measured for 10 to 30 mins by LC-MS/MS analysis; format: ADME
T1 sequence (P05177 whole entry): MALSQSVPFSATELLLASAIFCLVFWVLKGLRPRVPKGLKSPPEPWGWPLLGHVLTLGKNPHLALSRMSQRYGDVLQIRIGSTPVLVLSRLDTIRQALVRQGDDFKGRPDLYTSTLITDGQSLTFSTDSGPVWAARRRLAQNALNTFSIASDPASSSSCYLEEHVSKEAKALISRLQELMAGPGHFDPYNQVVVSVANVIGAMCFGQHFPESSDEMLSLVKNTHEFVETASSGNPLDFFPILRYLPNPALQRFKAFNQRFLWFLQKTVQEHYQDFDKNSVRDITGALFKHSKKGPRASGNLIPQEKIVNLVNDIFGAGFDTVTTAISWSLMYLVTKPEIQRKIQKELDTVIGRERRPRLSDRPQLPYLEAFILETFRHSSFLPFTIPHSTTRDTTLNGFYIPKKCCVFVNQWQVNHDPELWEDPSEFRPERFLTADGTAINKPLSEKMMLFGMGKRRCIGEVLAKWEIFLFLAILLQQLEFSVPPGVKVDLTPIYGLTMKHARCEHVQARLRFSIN

[13] = target: Cytochrome P450 2C19 (Homo sapiens, UniProt P33261); assay: Inhibition of CYP2C19 in human liver microsomes using (S)-mephenytoin as substrate preincubated for 5 mins followed by NADPH addition and measured for 10 to 30 mins by LC-MS/MS analysis; format: ADME
Cytochrome P450 2C19, sequence (P33261 whole entry): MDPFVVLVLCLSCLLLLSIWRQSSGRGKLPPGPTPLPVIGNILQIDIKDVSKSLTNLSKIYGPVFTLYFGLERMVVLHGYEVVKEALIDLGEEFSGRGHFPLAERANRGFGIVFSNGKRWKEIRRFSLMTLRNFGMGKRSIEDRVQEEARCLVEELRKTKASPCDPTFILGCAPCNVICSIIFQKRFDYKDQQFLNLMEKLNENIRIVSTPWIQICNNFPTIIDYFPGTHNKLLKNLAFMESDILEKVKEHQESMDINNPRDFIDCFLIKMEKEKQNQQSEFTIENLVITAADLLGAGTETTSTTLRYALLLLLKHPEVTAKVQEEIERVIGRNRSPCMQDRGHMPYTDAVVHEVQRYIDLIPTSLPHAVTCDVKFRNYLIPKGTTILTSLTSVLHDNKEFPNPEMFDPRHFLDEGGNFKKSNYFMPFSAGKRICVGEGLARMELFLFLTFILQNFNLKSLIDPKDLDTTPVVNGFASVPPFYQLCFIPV

[14] = target: Cytochrome P450 2D6 (Homo sapiens, UniProt P10635); assay: Inhibition of CYP2D6 in human liver microsomes using bufuralol as substrate preincubated for 5 mins followed by NADPH addition and measured for 10 to 30 mins by LC-MS/MS analysis; format: ADME
Cytochrome P450 2D6, sequence (P10635 whole entry): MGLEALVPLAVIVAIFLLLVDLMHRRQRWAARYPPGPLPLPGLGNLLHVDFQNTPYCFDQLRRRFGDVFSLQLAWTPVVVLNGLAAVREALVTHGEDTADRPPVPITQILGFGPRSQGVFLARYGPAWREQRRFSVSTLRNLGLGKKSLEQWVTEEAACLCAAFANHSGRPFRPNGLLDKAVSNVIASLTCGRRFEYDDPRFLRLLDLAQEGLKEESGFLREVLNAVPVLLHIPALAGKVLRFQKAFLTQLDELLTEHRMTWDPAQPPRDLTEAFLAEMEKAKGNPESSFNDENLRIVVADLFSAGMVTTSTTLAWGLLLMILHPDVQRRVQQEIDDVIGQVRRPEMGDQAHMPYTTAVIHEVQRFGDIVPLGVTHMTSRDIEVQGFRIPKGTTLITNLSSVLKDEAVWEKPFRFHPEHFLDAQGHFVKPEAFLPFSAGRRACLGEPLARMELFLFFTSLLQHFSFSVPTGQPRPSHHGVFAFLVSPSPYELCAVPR

[15] = test system: COLO 320DM; assay: Antitumor activity against human COLO320DM cells xenografted in Prkdc-NOD-SCID CB17 mouse assessed as tumor growth inhibition at 10 mg/kg, ip administered twice daily for 5 days followed by 2 days interval for 2 cycles relative to control; format: functional; details: read-out: TGI
[16] = test system: COLO 320DM; assay: Antitumor activity against human COLO320DM cells xenografted in Prkdc-NOD-SCID CB17 mouse assessed as tumor growth inhibition at 20 mg/kg, ip administered twice daily for 5 days followed by 2 days interval for 2 cycles relative to control; format: functional; details: read-out: TGI
[17] = Toxicity in human COLO320DM cells xenografted Prkdc-NOD-SCID CB17 mouse assessed as change in body weight at 10 to 20 mg/kg, ip administered twice daily for 5 days followed by 2 days interval for 2 cycles measured during compound dosing; format: organism-based; details: in vivo
[18] = test system: COLO 320DM; assay: Antitumor activity against human COLO320DM cells xenografted in Prkdc-NOD-SCID CB17 mouse assessed as tumor growth inhibition at 10 mg/kg, po administered twice daily for 5 days followed by 2 days interval for 2 cycles relative to control; format: functional; details: read-out: TGI
[19] = test system: Mus musculus; assay: (§1) In vivo inhibition of TNSK/TNSK2-medited WNT/beta-catenin signaling in human COLO320DM cells xenografted Prkdc-NOD-SCID CB17 mouse assessed as upregulation of AXIN2 expression in tumor cytosolic extract at 10 to 20 mg/kg, ip administered twice daily for 5 days followed by 2 days interval for 2 cycles measured 4 hrs post-last dose by Western blot analysis; format: functional, organism-based
[20] = test system: Mus musculus; assay: as §1, with “reduction in active-beta catenin” for “upregulation of AXIN2”, “nuclear” for “cytosolic”; format: functional, organism-based
[21] = test system: Mus musculus; assay: as §1, with “reduction in total beta catenin” for “upregulation of AXIN2”, “nuclear” for “cytosolic”; format: functional, organism-based
[22] = test system: Mus musculus; assay: as §1, with “reduction in total beta catenin” for “upregulation of AXIN2”, “nuclear” for “cytosolic”, “po” for “ip”; format: functional, organism-based
[23] = Plasma concentration in human COLO320DM cells xenografted Prkdc-NOD-SCID CB17 mouse at 10 mg/kg, po administered twice daily for 5 days followed by 2 days interval for 2 cycles measured 4 hrs post-last dose; format: ADME, organism-based
[24] = Plasma concentration in human COLO320DM cells xenografted Prkdc-NOD-SCID CB17 mouse at 20 mg/kg, po administered twice daily for 5 days followed by 2 days interval for 2 cycles measured 4 hrs post-last dose; format: ADME, organism-based
[25] = Plasma concentration in ICR mouse at 20 mg/kg, po measured after 4 hrs; format: ADME, organism-based
[26] = target: Tankyrase 1/2 (Homo sapiens) (UniProt Q9H2K2+O95271); assay: Inhibition of TNKS/TNKS2-mediated WNT/beta-catenin signaling pathway in human COLO320DM cells assessed as reduction in active beta-catenin expression by measuring beta-catenin level at 0.1 uM measured after 16 hrs by Western blot analysis relative to GADPH; format: cell-based
Tankyrase 1/2 (Homo sapiens), sequence (O95271 whole entry, looked up): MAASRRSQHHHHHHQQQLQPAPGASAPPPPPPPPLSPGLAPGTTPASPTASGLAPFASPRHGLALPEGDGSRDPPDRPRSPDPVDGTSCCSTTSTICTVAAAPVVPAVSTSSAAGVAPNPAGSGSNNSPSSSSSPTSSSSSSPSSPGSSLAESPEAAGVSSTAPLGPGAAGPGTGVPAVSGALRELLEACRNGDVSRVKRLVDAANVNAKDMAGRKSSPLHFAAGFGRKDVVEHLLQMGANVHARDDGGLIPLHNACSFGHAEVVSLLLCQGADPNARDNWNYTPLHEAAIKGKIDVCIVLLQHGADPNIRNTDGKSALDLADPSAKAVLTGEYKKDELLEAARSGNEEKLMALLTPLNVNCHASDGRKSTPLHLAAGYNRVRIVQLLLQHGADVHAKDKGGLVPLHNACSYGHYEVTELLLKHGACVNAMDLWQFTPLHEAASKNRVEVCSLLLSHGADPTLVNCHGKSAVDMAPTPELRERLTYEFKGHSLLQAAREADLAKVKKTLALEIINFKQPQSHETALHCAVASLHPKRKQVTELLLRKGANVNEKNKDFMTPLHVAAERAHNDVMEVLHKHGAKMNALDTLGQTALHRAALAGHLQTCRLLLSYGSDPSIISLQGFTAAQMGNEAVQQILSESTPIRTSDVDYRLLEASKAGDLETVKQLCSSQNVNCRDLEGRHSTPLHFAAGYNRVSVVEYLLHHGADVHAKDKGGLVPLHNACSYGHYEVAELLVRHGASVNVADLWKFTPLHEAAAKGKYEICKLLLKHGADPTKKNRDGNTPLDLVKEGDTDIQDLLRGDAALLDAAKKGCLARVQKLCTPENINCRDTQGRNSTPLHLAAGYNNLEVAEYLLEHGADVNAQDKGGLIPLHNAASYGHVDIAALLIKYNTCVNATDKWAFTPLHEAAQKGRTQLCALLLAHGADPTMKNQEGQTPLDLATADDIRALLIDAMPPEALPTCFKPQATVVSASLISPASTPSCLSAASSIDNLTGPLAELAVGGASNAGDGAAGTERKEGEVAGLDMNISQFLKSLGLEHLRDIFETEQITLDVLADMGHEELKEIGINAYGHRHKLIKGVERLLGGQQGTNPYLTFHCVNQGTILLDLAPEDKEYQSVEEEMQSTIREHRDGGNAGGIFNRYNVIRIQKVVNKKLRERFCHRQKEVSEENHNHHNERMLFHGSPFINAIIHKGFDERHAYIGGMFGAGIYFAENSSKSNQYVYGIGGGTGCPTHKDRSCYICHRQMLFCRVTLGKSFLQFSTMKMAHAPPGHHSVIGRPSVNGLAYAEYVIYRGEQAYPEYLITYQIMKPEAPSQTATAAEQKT
Tankyrase 1/2 (Homo sapiens), sequence (Q9H2K2 whole entry, looked up): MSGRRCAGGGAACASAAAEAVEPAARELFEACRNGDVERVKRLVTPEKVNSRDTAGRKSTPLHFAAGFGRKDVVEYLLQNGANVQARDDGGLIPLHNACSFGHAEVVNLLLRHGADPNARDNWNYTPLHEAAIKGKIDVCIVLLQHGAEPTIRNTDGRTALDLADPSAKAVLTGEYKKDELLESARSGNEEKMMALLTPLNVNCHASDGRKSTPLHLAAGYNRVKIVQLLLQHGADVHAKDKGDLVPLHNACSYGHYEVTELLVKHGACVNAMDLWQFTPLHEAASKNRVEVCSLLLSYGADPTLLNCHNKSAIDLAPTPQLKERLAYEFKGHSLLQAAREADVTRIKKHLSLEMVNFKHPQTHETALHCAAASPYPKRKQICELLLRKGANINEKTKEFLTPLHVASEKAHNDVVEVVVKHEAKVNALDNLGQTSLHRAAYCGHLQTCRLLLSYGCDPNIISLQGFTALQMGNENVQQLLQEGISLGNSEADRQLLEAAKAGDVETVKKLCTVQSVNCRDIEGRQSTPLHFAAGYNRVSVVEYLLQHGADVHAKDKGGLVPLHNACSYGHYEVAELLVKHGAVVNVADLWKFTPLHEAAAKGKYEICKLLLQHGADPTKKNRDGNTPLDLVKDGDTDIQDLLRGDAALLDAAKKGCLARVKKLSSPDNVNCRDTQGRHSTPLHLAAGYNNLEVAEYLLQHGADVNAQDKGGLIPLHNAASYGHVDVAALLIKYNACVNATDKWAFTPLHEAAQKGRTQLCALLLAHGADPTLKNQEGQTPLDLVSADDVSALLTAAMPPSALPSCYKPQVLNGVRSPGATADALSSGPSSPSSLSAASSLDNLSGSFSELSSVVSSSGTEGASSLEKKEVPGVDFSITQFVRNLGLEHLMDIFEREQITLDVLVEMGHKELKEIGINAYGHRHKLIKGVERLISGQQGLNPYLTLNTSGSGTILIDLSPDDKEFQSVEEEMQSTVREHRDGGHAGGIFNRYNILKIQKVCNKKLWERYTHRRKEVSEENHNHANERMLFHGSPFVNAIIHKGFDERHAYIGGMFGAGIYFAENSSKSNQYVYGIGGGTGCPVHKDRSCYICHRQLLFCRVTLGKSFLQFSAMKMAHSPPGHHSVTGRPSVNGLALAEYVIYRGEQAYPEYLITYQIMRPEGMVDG

[27] = Toxicity in human COLO320DM cells xenografted Prkdc-NOD-SCID CB17 mouse assessed as behavioral changes at 50 mg/kg, ip administered twice daily for 5 days followed by 2 days interval for 2 cycles; details: in vivo
[28] = Toxicity in human COLO320DM cells xenografted Prkdc-NOD-SCID CB17 mouse assessed as loss of body weight at 50 mg/kg, ip administered twice daily for 5 days followed by 2 days interval for 2 cycles; details: in vivo
[29] = Toxicity in human COLO320DM cells xenografted Prkdc-NOD-SCID CB17 mouse assessed as reduction in crypt proliferation at 50 mg/kg, ip administered twice daily for 5 days followed by 2 days interval for 2 cycles; details: in vivo
[30] = test system: COLO 320DM; assay: Antitumor activity against human COLO320DM cells xenografted in Prkdc-NOD-SCID CB17 mouse assessed as tumor growth inhibition; format: functional

C[C@@H]1CN(c2cc(F)c3c(c2)N(C)C(=O)C32CCN(c3nc4c(c(=O)[nH]3)CCCN4C)CC2)C[C@H](C)O1
clearance [1]: 3.17 mL/min/kg | Cmax [2]: 12.7 µM | Tmax [3]: 19.8 min | Ratio IC50 [4]: 504 | Ratio IC50 [5]: 34 | AUC(0-inf) [6]: 266 µM·h | Cmax [7]: 75.6 µM | Tmax [8]: 1 h | half-life [9]: 168 min | AUC(0-inf) [10]: 326 µM·h | half-life [11]: 102 min | IC50 [12]: > 10 µM | IC50 [13]: > 10 µM | IC50 [14]: > 10 µM | inhibition in vivo at 10 mg/kg [15]: 68.8% | inhibition in vivo at 20 mg/kg [16]: 71.1% | Activity [17]: Non-Toxic | inhibition in vivo at 10 mg/kg [18]: 52.3% | inhibition [19]: Active | inhibition [20]: inactive | inhibition [21]: inactive | inhibition [22]: Active | concentration at 4 h [23]: 10.1 µM | concentration at 4 h [24]: 23.3 µM | concentration at 4 h [25]: 26.9 µM | fold change (FC) [26]: 0.39 | Activity [27]: Toxic | Activity [28]: Toxic | Activity [29]: Toxic

CN1CCN(c2cc(F)c3c(c2)N(C)C(=O)C32CCN(c3nc4c(c(=O)[nH]3)CCCN4C)CC2)CC1
TGI [30]: inactive
